# Earlier results in EP0611304B1, “USE OF […] (ACEMANNAN) FOR THE REGULATION OF BLOOD C[…] AND FOR REMOVING PLAQUES IN BLOOD VESSELS” (CARRINGTON LABORATORIES, INC., priority 1991, dated 1993).
# Test system: CEM cells infected with HTLV-IIIRFII virus
# Conditions: 0.001 µg/ml AZT alone
structure (smiles),measurement,value
"Cc1cn([C@H]2C[C@H](N=[N+]=[N-])[C@@H](CO)O2)c(=O)[nH]c1=O [AZT, Zidovudine]",increase in viability of infected CEM cells,no more than 10%
